Assay results reported in US5912266A, “Beta2 integrin cell adhesion molecule inhibitors” (American Home Products Corporation, priority 1997, dated 1999).
Values joined by “and” are separate entries in the source; they are usually repeats but may differ in a detail not shown here. Identical values can stand only once.

System: β1 integrin
Experiment: Adhesion of activated, β1 integrin-expressing U937 cells to human fibronectin
Type: cell-based
Conditions: for Percent Cells Bound: single well
Experimental: U937 cells, a human monocyte-like, histiocytic lymphoma cell line, was acquired from American Type Culture Collection (ATCC No. CRL-1593). The cells were grown in the culture media described in Example I, materials. Cells were subcultured when the cell density was approximately 1×10^6 cells per ml. The β1 integrins on U937 cells were activated to bind to fibronectin by the addition of PMN Buffer, described in Example I. The human fibronectin (Gibco, No. XOO1) was diluted to 3.5 μg/ml with dPBS. A 1% Bovine Serum Albumin (BSA; Fraction V, ICN Corp., No. 810032) solution was prepared in dPBS and was sterile filtered using a […] disposable filter apparatus (Corning No. 25932-200) before use. The 1% BSA solution was used for blocking non-specific binding sites on the plastic wells of the assay plate. The assay plates used were Corning 96-well EIA/RIA plates (No. 25801).
350 ng of human fibronectin contained in 100 μl of dPBS was added to wells of the assay plate. The control wells were filled with dPBS only. The assay plate was incubated at room temperature for exactly two hours to allow the fibronectin to bind to the assay wells. The fibronectin solution was aspirated from the wells of the assay plate and the wells were washed 3× with 200 μl/well of dPBS. The assay wells were filled with the 1% BSA solution. Additional wells, not coated with fibronectin, were also filled with the 1% BSA solution; these wells were used to measure non-specific cell adherence to the plastic assay plate. The assay plate was incubated for 30 minutes at room temperature. The 1% BSA solution was removed from the wells of the assay plate by aspiration using a multichannel pipettor. The assay wells were washed 3× with 200 μl/well of dPBS. Approximately 50 μl of dPBS was added to the assay wells to ensure that they would not dry out prior to the initiation of the assay.
U937 cells were harvested from culture, washed and labeled with calcein AM fluorescent dye as outlined in Example I, except that the concentration of calcein used to label U937 cells was 12.5 μM and cells were sedimented by centrifugation at 1000 rpm for 5 minutes. After the final wash (see Example I), the U937 cells were resuspended in ice-cold PMN Buffer to 1.25×10^5 cells/40 μl. The cell suspension was placed in the dark at room temperature until needed. The asperlin solutions were prepared as described in Example I.
The 50 μl of dPBS remaining in the wells of the assay plate was removed by inverting the assay plate and tapping on paper toweling. 50 μl of the serially diluted asperlin solution was added to wells of the assay plate. Control wells received PMN buffer containing 2% DMSO and the assay plate was incubated for 10 minutes at room temperature.
Calcein labeled cells, that had been gently mixed by swirling, were added to the wells in 40 μl volumes equal to 1.25×10^5 cells/well and 10 μl of PMA solution was immediately added to the wells of the assay plate and the assay was continued as described in Example 1. 100 μl of PMN buffer was added to all wells of the assay plate. The fluorescence of the adherent, activated β1 integrin expressing cells was measured using a fluorescent plate reader, as described in Example I.
The percentage of β1 integrin expressing cells adhering to fibronectin coated wells was quantitated by the equation: % Cells Bound=((Bound Cell Fluorescence-Average Bound Fluorescence of the Non-specific Binding Control).div.Total Cell Fluorescence)×100.

CC(=O)OC1C=CC(=O)OC1C1OC1C [Asperlin, 6,7-Anhydro-2,3,8-trideoxy-D-galacto-oct-2-enoic acidδ-lactone 4-acetate]
% Inhibition Cell Adhesion (Asperlin 1.56 μg/ml): -9%
Average Percent Bound (Asperlin 1.56 μg/ml): 75%
Bound Cell Fluorescence (Asperlin 1.56 μg/ml): 3002 fluorescence units/well and 3140 fluorescence units/well and 3132 fluorescence units/well
Percent Cells Bound (Asperlin 1.56 μg/ml): 75% and 76% and 74%
% Inhibition Cell Adhesion (Asperlin 3.125 μg/ml): -9%
Average Percent Bound (Asperlin 3.125 μg/ml): 75%
Bound Cell Fluorescence (Asperlin 3.125 μg/ml): 3132 fluorescence units/well and 3140 fluorescence units/well and 2895 fluorescence units/well
Percent Cells Bound (Asperlin 3.125 μg/ml): 76% and 75% and 73%
% Inhibition Cell Adhesion (Asperlin 6.25 μg/ml): 10%
Average Percent Bound (Asperlin 6.25 μg/ml): 62%
Bound Cell Fluorescence (Asperlin 6.25 μg/ml): 2292 fluorescence units/well and 2344 fluorescence units/well and 2529 fluorescence units/well
Percent Cells Bound (Asperlin 6.25 μg/ml): 60% and 65%
% Inhibition Cell Adhesion (Asperlin 12.5 μg/ml): -1%
Average Percent Bound (Asperlin 12.5 μg/ml): 70%
Bound Cell Fluorescence (Asperlin 12.5 μg/ml): 2331 fluorescence units/well and 2683 fluorescence units/well and 2985 fluorescence units/well
Percent Cells Bound (Asperlin 12.5 μg/ml): 64% and 71% and 74%
% Inhibition Cell Adhesion (Asperlin 25 μg/ml): 0%
Average Percent Bound (Asperlin 25 μg/ml): 69%
Bound Cell Fluorescence (Asperlin 25 μg/ml): 2404 fluorescence units/well and 2870 fluorescence units/well and 2969 fluorescence units/well
Percent Cells Bound (Asperlin 25 μg/ml): 61% and 71% and 75%
% Inhibition Cell Adhesion (Asperlin 50 μg/ml): -6%
Average Percent Bound (Asperlin 50 μg/ml): 73%
Bound Cell Fluorescence (Asperlin 50 μg/ml): 2391 fluorescence units/well and 2791 fluorescence units/well and 3203 fluorescence units/well
Percent Cells Bound (Asperlin 50 μg/ml): 68% and 74% and 77%
% Inhibition Cell Adhesion (Asperlin 100 μg/ml): 0%
Average Percent Bound (Asperlin 100 μg/ml): 69%
Bound Cell Fluorescence (Asperlin 100 μg/ml): 2466 fluorescence units/well and 2854 fluorescence units/well and 3194 fluorescence units/well
Percent Cells Bound (Asperlin 100 μg/ml): 61% and 70% and 75%
% Inhibition Cell Adhesion (Asperlin 200 μg/ml): 3%
Average Percent Bound (Asperlin 200 μg/ml): 67%
Bound Cell Fluorescence (Asperlin 200 μg/ml): 2222 fluorescence units/well and 2736 fluorescence units/well and 2846 fluorescence units/well
Percent Cells Bound (Asperlin 200 μg/ml): 61% and 68% and 71%
Effect on adhesion of β1 integrin expressing cells to fibronectin (in words) (summary of Table II): does not block the adhesion of β1 integrin expressing cells to fibronectin
